Test results taken from US8889902B2, “Acetylsalicylic acid salts” (priority 2009, dated 2014).
Marks after values point to notes of the source that are not given here.

Legend:
[1] = tested on: adjuvant arthritis induced by Freund's adjuvant; assay: Adjuvant arthritis: paw volume and ankle joint; format: in vivo, Wistar rats; details: for Prevention %, paw volume Day 14 / Prevention %, paw volume Day 28: vs AdA
Description: Our experiments were scheduled to test the influence of MASA on the progress of adjuvant arthritis in comparison with MD and ASA. […] Each standard cage housed 7 rats with unlimited access to drinking water and granulated standard feed. […] All efforts were made to minimize animal suffering and to reduce the number of animals used. A modified standard procedure for inducting and evaluating the progress of chronic adjuvant arthritis was used (Bellavite P, Ortolani R, Conforti A, Immunology and Homeopathy. 3. Experimental Studies on Animal Models, Advance Access Publication 2.05, 2006, 171-186). […] The solutions of test substances were prepared ex tempore. […] Test solutions were introduced to animal p.o. by catheter into the stomach. […] The effects of test substances were evaluated using the following criteria: The oedema, i.e. the volume of hind paw was measured by oncometer. The percentage of prevention (inhibition of oedema) was calculated according to formula: P(%)=(Vc−Vt)/Vc×100, where Vc—paw volume in control group Vt—paw volume in test group P—Prevention in % (inhibition of oedema).

[2] = tested on: WBC, CRP, CIC in adjuvant arthritis; assay: Adjuvant arthritis: WBC, CRP and CIC in blood; format: in vivo, Wistar rats
Procedure: Our experiments were scheduled to test the influence of MASA on the progress of adjuvant arthritis in comparison with MD and ASA. Experiments were conducted on Wistar rats with starting body mass of 153-185 g. Rats were kept in climatized rooms at 22±1° C., relative humidity 60±5% and 12/12-hour light/darkness cycle. Each standard cage housed 7 rats with unlimited access to drinking water and granulated standard feed. All experiments were carried out in accordance with the European Community Council's Directive of 24 Nov. 1986 (86/609/EEC) relative to experimental animal care. All efforts were made to minimize animal suffering and to reduce the number of animals used.
A modified standard procedure for inducting and evaluating the progress of chronic adjuvant arthritis was used (Bellavite P, Ortolani R, Conforti A, Immunology and Homeopathy. 3. Experimental Studies on Animal Models, Advance Access Publication 2.05, 2006, 171-186). Rats were injected into the hind foot pad 0.1 ml and intraperitonealy with 0.05 ml of complete Freund's adjuvant solution.
Hematological indices were determined by standard methods on hematological analyzer ? PENTRA 120 ? , CRP was determined on ? INTEGRA 400+ ? . Levels of CIC in blood serum were determined spectrometrically, using […].

[3] = tested on: serum lipid levels (C, HDL, LDL, TG); assay: Chronic hyperlipidemia model (Triton WR1339, 3 weeks); format: in vivo, Wistar rats; details: MASA 150 mg/kg/d p.o.; TR 250 mg/kg 3x/week
Procedure: Male Wistar rats were used. Animals were held in climatized rooms 22±1° C. with relative humidity 60±5%, and 12/12-hour light/dark cycle with free access to water and feed. Initial weight of animals was 220-240 g. Experimental chronical (subchronical) hyperlipidemia/hypercholesterolemia was induced by TR using the method described by Levine and Saltzman (Levine S, Saltzman A, J Pharmacol Toxicol Meth 2007; 55:224-226). Animals received 250 mg/kg of TR solution via tail vein three times a week for 3 weeks. Solutions of test substances or water for Control and TR group was introduced p.o. once a day one hour before injection of TR solution or taking a blood sample according to the following scheme:
Blood for biochemical analyses was obtained after 1, 2 and 3 weeks (on the next day after the TR injection) by cardiac punction under ether narcosis. Serum was separated by centrifugation and analyzed for total C, HDL, LDL and TG levels by commercial kits. Statistics.

platelet aggregation = assay: Platelet aggregation ex vivo after 3 days treatment; format: in vivo, rats; details: 10 mg/kg/d p.o. 3 days
Procedure: Platelet aggregation was studied using whole blood impedance aggregometry on Multiplate (Multiple Platelet Function Analyzer, Dynabyte Medical, Germany) (Toth O et al, Thromb Haemost 2006; 96:781-788. […] Blood samples for in vitro experiment were collected from healthy donor B. […] In the ex vivo experiment blood was collected into plastic tubes covered with hirudin (Dynabyte Medical, Germany) from narcotized rats that were treated for 3 previous days with test substances p.o. The measurements were performed according to modified Dynabyte Medical protocol. […] After 5 min incubation and stirring at 37° C., measurements were initiated by adding of the appropriate agonist solution (sourced from Dynabyte Medical, Germany): After the thrombosis experiment the narcotized animals who received test substances for 3 days were used for platelet aggregation test ex vivo. […] Blood samples were used for measurement between 30 min and 4 h after collection. The measurements were performed according to modified Dynabyte Medical protocol (see above under Platelet aggregation).

[4] = tested on: blood flow in the right ear artery; assay: Cutaneous vasodilatation caused by nicotinic acid, ear artery blood flow; format: in vivo, Wistar rats; details: 45 mg/kg s.c.; maximal change to baseline
Procedure: Model. […] Blood pressure was measured in left carotid artery, ECG recorded by standard II lead. […] Blood flow, ECG and arterial pressure were registered by AD Instruments PowerLab systems and stored in computer for further processing. […] The average blood flow data for each animal were calculated taking into account the average blood pressure and compared with initial and control. […] Statistics.

CC(=O)Oc1ccccc1C(=O)[O-].C[N+](C)(C)NCCC(=O)O [MASA, 3-(trimethylammonioamino)propanoate Acetylsalicylic Acid Addition Salt]
Dimensions of ankle joint on Day 14 ([1]; 25 mg/kg daily p.o.): 7.0 ± 0.14 mm
Dimensions of ankle joint on Day 28 ([1]; 25 mg/kg daily p.o.): 6.7 ± 0.15 mm
Paw volume on Day 14 ([1]; 25 mg/kg daily p.o.): 2.20 ± 0.21 mL
Paw volume on Day 28 ([1]; 25 mg/kg daily p.o.): 1.32 ± 0.12^#&&$ ml
Prevention %, paw volume Day 14 ([1]; 25 mg/kg daily p.o.): 9%
Prevention %, paw volume Day 28 ([1]; 25 mg/kg daily p.o.): 41%
Dimensions of ankle joint on Day 14 ([1]; 100 mg/kg daily p.o.): 7.0 ± 0.13 mm
Dimensions of ankle joint on Day 28 ([1]; 100 mg/kg daily p.o.): 6.6 ± 0.16^#@$ mm
Paw volume on Day 14 ([1]; 100 mg/kg daily p.o.): 2.07 ± 0.17^& ml
Paw volume on Day 28 ([1]; 100 mg/kg daily p.o.): 1.22 ± 0.08^#&&&@$ ml
Prevention %, paw volume Day 14 ([1]; 100 mg/kg daily p.o.): 15%
Prevention %, paw volume Day 28 ([1]; 100 mg/kg daily p.o.): 45%
Dimensions of ankle joint on Day 14 ([1]; 200 mg/kg daily p.o.): 6.8 ± 0.10^#& mm
Dimensions of ankle joint on Day 28 ([1]; 200 mg/kg daily p.o.): 6.9 ± 0.11 mm
Paw volume on Day 14 ([1]; 200 mg/kg daily p.o.): 2.13 ± 0.11^& ml
Paw volume on Day 28 ([1]; 200 mg/kg daily p.o.): 1.7 ± 0.09^#&@ ml
Prevention %, paw volume Day 14 ([1]; 200 mg/kg daily p.o.): 12%
Prevention %, paw volume Day 28 ([1]; 200 mg/kg daily p.o.): 24%
CIC units, Day 14 ([2]; 25 mg/kg daily p.o.): 12.6 ± 0.68 units
CIC units, Day 28 ([2]; 25 mg/kg daily p.o.): 11.8 ± 1.53 units
CRP, Day 14 ([2]; 25 mg/kg daily p.o.): 0.29 ± 0.02 mg/L
CRP, Day 28 ([2]; 25 mg/kg daily p.o.): 0.15 ± 0.02^##& mg/l
Leucocytes (WBC), Day 14 ([2]; 25 mg/kg daily p.o.): 14.72 ± 1.63^# 10^3/mm^3
Leucocytes (WBC), Day 28 ([2]; 25 mg/kg daily p.o.): 16.77 ± 1.78 10^3/mm^3
CIC units, Day 14 ([2]; 100 mg/kg daily p.o.): 20.8 ± 2.99 units
CIC units, Day 28 ([2]; 100 mg/kg daily p.o.): 5.8 ± 0.74^##&@@$ units
CRP, Day 14 ([2]; 100 mg/kg daily p.o.): 0.29 ± 0.02 mg/L
CRP, Day 28 ([2]; 100 mg/kg daily p.o.): 0.16 ± 0.01^##& mg/l
Leucocytes (WBC), Day 14 ([2]; 100 mg/kg daily p.o.): 14.13 ± 0.53^## 10^3/mm^3
Leucocytes (WBC), Day 28 ([2]; 100 mg/kg daily p.o.): 15.52 ± 0.57^## 10^3/mm^3
CIC units, Day 14 ([2]; 200 mg/kg daily p.o.): 21.6 ± 3.26 units
CIC units, Day 28 ([2]; 200 mg/kg daily p.o.): 6.2 ± 1.02^##@ units
CRP, Day 14 ([2]; 200 mg/kg daily p.o.): 0.25 ± 0.01*^#@ mg/l
CRP, Day 28 ([2]; 200 mg/kg daily p.o.): 0.19 ± 0.01 mg/L
Leucocytes (WBC), Day 14 ([2]; 200 mg/kg daily p.o.): 15.42 ± 1.40^# 10^3/mm^3
Leucocytes (WBC), Day 28 ([2]; 200 mg/kg daily p.o.): 14.35 ± 0.84^## 10^3/mm^3
HDL after 1 week (HDL1) [3]: 100.1 ± 9.4 mg/dL
HDL after 2 weeks (HDL2) [3]: 113.8 ± 13.1 mg/dL
HDL after 3 weeks (HDL3) [3]: 128.3 ± 18.5 mg/dL
LDL after 1 week (LDL1) [3]: 263.3 ± 19.4 mg/dL
LDL after 2 weeks (LDL2) [3]: 287.6 ± 18.5 mg/dL
LDL after 3 weeks (LDL3) [3]: 261.9 ± 12.6 mg/dL
TG after 1 week (TG1) [3]: 964 ± 94.9 mg/dL
TG after 2 weeks (TG2) [3]: 1079 ± 84 mg/dL
TG after 3 weeks (TG3) [3]: 982 ± 72.7 mg/dL
Total C after 1 week (C1) [3]: 375.9 ± 25.8 mg/dL
Total C after 2 weeks (C2) [3]: 406.7 ± 19.8 mg/dL
Total C after 3 weeks (C3) [3]: 409 ± 39.4 mg/dL
AUC (platelet aggregation; AA induced): 232 ± 44.1^2&a AU*min
Amax (platelet aggregation; AA induced): 48.2 ± 9.7^3&a AU
AUC (platelet aggregation; ADP induced): 528 ± 46.5^1 AU*min
Amax (platelet aggregation; ADP induced): 75.5 ± 12.8^2 AU
AUC (platelet aggregation; PGE1 + ADP induced): 195 ± 35.3^3 AU*min
Amax (platelet aggregation; PGE1 + ADP induced): 41.4 ± 14.8^2 AU
Changes in blood flow, % [4]: 8.04 ± 2.02^$ %
